Calls of active or inactive are those of the source. The rule behind the calls is not given here.
How the values were obtained:
MDA-MB-231 [1] = test: Induction of apoptosis in human MDA-MB-231 cells assessed as late apoptotic cells at 4 uM after 48 hrs by Annexin-V-FITC/propidium iodide staining based flow cytometry (reference value: 2.38%); format: functional
[2] = biological target: Epidermal growth factor receptor (Homo sapiens) (UniProt P00533); test: Inhibition of EGFR in human MDA-MB-231 cells assessed as reduction in phosphorylated PI3K expression after 8 hrs by Western blot analysis; format: cell-based
MCF7 [3] = test: Antiproliferative activity against human MCF7 cells assessed as reduction in cell viability after 24 to 72 hrs by MTT assay; format: functional, cell-based
MDA-MB-231 [4] = test: Induction of apoptosis in human MDA-MB-231 cells assessed as downregulation of Bcl-2 protein expression at 3 to 12 uM after 48 hrs by Western blot analysis; format: functional, cell-based
MDA-MB-231 [5] = test: Induction of apoptosis in human MDA-MB-231 cells assessed as increase in p53 expression at 3 to 12 uM after 48 hrs by Western blot analysis; format: functional, cell-based
[6] = biological target: Epidermal growth factor receptor (Homo sapiens) (UniProt P00533); test: Inhibition of EGFR phosphorylation at Y1068 residues in human MDA-MB-231 cells after 8 hrs by Western blot analysis; format: cell-based
MCF7 [7] = test: Induction of apoptosis in human MCF7 cells assessed as necrotic cells at 6 uM after 48 hrs by Annexin-V-FITC/propidium iodide staining based flow cytometry (reference value: 1.57%); format: functional
MCF7 [8] = test: Induction of apoptosis in human MCF7 cells assessed as increase in P53 expression at 3 to 12 uM after 48 hrs by Western blot analysis; format: functional, cell-based
MDA-MB-231 [9] = test: Cell cycle arrest in human MDA-MB-231 cells assessed as accumulation at G1 phase at 12 uM after 24 hrs by propidium iodide/RNase A staining-based flow cytometric analysis (reference value: 49.17%); format: functional
MCF7 [10] = test: Cell cycle arrest in human MCF7 cells assessed as accumulation at S phase at 3 uM after 24 hrs by propidium iodide/RNase A staining-based flow cytometric analysis (reference value: 17.17%); format: functional
MDA-MB-231 [11] = test: Cell cycle arrest in human MDA-MB-231 cells assessed as accumulation at S phase at 12 uM after 24 hrs by propidium iodide/RNase A staining-based flow cytometric analysis (reference value: 23.07%); format: functional
HGC-27 = test: Cytotoxicity against human HGC27 cells assessed as reduction in cell viability after 72 hrs by MTT assay; format: functional, cell-based; settings: HGC-27, 72 h
[12] = biological target: Epidermal growth factor receptor (Homo sapiens) (UniProt P00533); test: Inhibition of EGFR phosphorylation at Y1068 residues in human MCF7 cells after 8 hrs by Western blot analysis; format: cell-based
MCF7 [13] = test: Antimigratory activity against human MCF7 cells assessed as reduction in scratch healing after 72 hrs by microscopy based scratch wound assay; format: functional, cell-based
MCF7 [14] = test: Induction of apoptosis in human MCF7 cells assessed as late apoptotic cells at 6 uM after 48 hrs by Annexin-V-FITC/propidium iodide staining based flow cytometry (reference value: 4.28%); format: functional
MCF7 [15] = test: Induction of apoptosis in human MCF7 cells assessed as early apoptotic cells at 6 uM after 48 hrs by Annexin-V-FITC/propidium iodide staining based flow cytometry (reference value: 3.05%); format: functional
MDA-MB-231 [16] = test: Cell cycle arrest in human MDA-MB-231 cells assessed as accumulation at S phase at 3 uM after 24 hrs by propidium iodide/RNase A staining-based flow cytometric analysis (reference value: 23.07%); format: functional
[17] = biological target: Epidermal growth factor receptor (Homo sapiens) (UniProt P00533); test: Inhibition of EGFR phosphorylation at Y992 residues in human MCF7 cells after 8 hrs by Western blot analysis; format: cell-based
MCF7 [18] = test: Antiproliferative activity against human MCF7 cells assessed as reduction in cell viability up to 32 uM by MTT assay; format: functional, cell-based; settings: TDE = time-dependent effect
MDA-MB-231 [19] = test: Induction of apoptosis in human MDA-MB-231 cells assessed as late apoptotic cells at 6 uM after 48 hrs by Annexin-V-FITC/propidium iodide staining based flow cytometry (reference value: 2.38%); format: functional
MCF7 [20] = test: Cell cycle arrest in human MCF7 cells assessed as accumulation at S phase at 12 uM after 24 hrs by propidium iodide/RNase A staining-based flow cytometric analysis (reference value: 17.17%); format: functional
[21] = biological target: Epidermal growth factor receptor (Homo sapiens) (UniProt P00533); test: Inhibition of EGFR in human MDA-MB-231 cells assessed as reduction in phosphorylated AKT expression after 8 hrs by Western blot analysis; format: cell-based
MCF7 [22] = test: Effect on total AKT protein level in human MCF7 cells up to 12 uM after 8 hrs by Western blot analysis; format: ADME, cell-based; settings: mcf7, 8 h
MDA-MB-231 [23] = test: Inhibition of colony formation in human MDA-MB-231 cells at 9 uM after 7 days by crystal violet staining based microscopic analysis; format: functional, cell-based
MCF7 [24] = test: Induction of apoptosis in human MCF7 cells assessed as necrotic cells at 4 uM after 48 hrs by Annexin-V-FITC/propidium iodide staining based flow cytometry (reference value: 1.57%); format: functional
MCF7 [25] = test: Induction of apoptosis in human MCF7 cells assessed as increase in Bax expression levels at 3 to 12 uM after 48 hrs by Western blot analysis; format: functional, cell-based
[26] = biological target: Epidermal growth factor receptor (Homo sapiens) (UniProt P00533); test: Inhibition of EGFR phosphorylation at Y1045 residues in human MDA-MB-231 cells after 8 hrs by Western blot analysis; format: cell-based
MDA-MB-231 [27] = test: Induction of apoptosis in human MDA-MB-231 cells assessed as late apoptotic cells at 2 uM after 48 hrs by Annexin-V-FITC/propidium iodide staining based flow cytometry (reference value: 2.38%); format: functional
MDA-MB-231 [28] = test: Cell cycle arrest in human MDA-MB-231 cells assessed as accumulation at G1 phase at 3 uM after 24 hrs by propidium iodide/RNase A staining-based flow cytometric analysis (reference value: 49.17%); format: functional
[29] = biological target: Epidermal growth factor receptor (Homo sapiens) (UniProt P00533); test: Inhibition of EGFR phosphorylation at Y992 residues in human MDA-MB-231 cells after 8 hrs by Western blot analysis; format: cell-based
MCF7 [30] = test: Induction of apoptosis in human MCF7 cells assessed as downregulation of Bcl-2 protein expression at 3 to 12 uM after 48 hrs by Western blot analysis; format: functional, cell-based
MCF7 [31] = test: Cytotoxicity against human MCF7 cells assessed as reduction in cell viability after 72 hrs by MTT assay; format: functional, cell-based; settings: MCF7, 72 h
MCF7 [32] = test: Induction of apoptosis in human MCF7 cells assessed as viable cells at 6 uM after 48 hrs by Annexin-V-FITC/propidium iodide staining based flow cytometry (reference value: 91.1%); format: functional; settings: MCF7, 48 h, read-out: Activity
MCF7 [33] = test: Induction of apoptosis in human MCF7 cells assessed as late apoptotic cells at 4uM after 48 hrs by Annexin-V-FITC/propidium iodide staining based flow cytometry (reference value: 4.28%); format: functional
[34] = biological target: Epidermal growth factor receptor (Homo sapiens) (UniProt P00533); test: Inhibition of EGFR in human MCF7 cells assessed as reduction in phosphorylated PI3K expression after 8 hrs by Western blot analysis; format: cell-based
MCF7 [35] = test: Induction of apoptosis in human MCF7 cells assessed as early apoptotic cells at 4 uM after 48 hrs by Annexin-V-FITC/propidium iodide staining based flow cytometry (reference value: 3.05%); format: functional
MDA-MB-231 [36] = test: Induction of apoptosis in human MDA-MB-231 cells assessed as early apoptotic cells at 2 uM after 48 hrs by Annexin-V-FITC/propidium iodide staining based flow cytometry (reference value: 4.33%); format: functional

Epidermal growth factor receptor (Homo sapiens), sequence (P00533 whole entry): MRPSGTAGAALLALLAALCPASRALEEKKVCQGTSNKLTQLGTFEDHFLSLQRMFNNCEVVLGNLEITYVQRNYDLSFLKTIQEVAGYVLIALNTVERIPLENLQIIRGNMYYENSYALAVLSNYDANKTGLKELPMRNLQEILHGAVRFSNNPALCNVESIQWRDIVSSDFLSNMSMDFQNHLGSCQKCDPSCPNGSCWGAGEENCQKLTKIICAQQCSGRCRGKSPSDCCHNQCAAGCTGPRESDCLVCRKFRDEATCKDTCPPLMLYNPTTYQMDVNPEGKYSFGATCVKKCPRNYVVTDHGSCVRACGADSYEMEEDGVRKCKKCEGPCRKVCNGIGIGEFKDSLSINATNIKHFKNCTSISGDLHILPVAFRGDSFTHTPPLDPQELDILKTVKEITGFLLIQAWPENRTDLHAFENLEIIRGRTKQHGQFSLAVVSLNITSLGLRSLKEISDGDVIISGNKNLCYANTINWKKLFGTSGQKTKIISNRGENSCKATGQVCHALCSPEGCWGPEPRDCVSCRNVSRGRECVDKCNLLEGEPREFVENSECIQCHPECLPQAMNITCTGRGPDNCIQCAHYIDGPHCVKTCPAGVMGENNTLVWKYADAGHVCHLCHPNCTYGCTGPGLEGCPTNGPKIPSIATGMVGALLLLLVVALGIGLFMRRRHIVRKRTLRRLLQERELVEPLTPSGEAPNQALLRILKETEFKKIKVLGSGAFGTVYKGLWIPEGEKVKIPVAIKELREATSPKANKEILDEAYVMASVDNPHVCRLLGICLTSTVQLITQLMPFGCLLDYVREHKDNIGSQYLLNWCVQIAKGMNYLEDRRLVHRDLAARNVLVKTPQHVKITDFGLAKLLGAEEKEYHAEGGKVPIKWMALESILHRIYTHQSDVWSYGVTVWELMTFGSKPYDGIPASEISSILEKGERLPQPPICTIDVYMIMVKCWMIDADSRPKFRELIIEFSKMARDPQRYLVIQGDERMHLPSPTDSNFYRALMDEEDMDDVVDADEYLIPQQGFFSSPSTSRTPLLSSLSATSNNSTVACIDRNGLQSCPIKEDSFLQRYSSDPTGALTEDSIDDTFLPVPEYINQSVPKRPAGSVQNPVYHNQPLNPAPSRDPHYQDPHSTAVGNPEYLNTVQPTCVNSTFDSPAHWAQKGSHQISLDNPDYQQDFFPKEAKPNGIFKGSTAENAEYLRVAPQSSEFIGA

FC(F)(F)c1ccc(CSc2nc(Nc3ccc(C(F)(F)F)cc3)c3ccccc3n2)cc1
Activity (MDA-MB-231 [1]): 15.3%
inhibition [2]: Dose-dependent effect
Activity (MCF7 [3]): Dose-dependent effect
Activity (MDA-MB-231 [4]): Active
Activity (MDA-MB-231 [5]): Active
inhibition [6]: Dose-dependent effect
Activity (MCF7 [7]): 1.8%
Activity (MCF7 [8]): Active
Activity (MDA-MB-231 [9]): 69.54%
Activity (MCF7 [10]): 20.44%
Activity (MDA-MB-231 [11]): 18.77%
IC50 (HGC-27): 7.56 µM
inhibition [12]: Dose-dependent effect
Activity (MCF7 [13]): Dose-dependent effect
Activity (MCF7 [14]): 10.6%
Activity (MCF7 [15]): 17.1%
Activity (MDA-MB-231 [16]): 18.96%
inhibition [17]: Dose-dependent effect
Activity (MCF7 [18]): Tde
Activity (MDA-MB-231 [19]): 20.7%
Activity (MCF7 [20]): 10.65%
inhibition [21]: Dose-dependent effect
Activity (MCF7 [22]): Non-Toxic
growth inhibition (GI) (MDA-MB-231 [23]): Active
Activity (MCF7 [24]): 1.28%
Activity (MCF7 [25]): Active
inhibition [26]: Dose-dependent effect
Activity (MDA-MB-231 [27]): 7.92%
Activity (MDA-MB-231 [28]): 53%
inhibition [29]: Dose-dependent effect
Activity (MCF7 [30]): Active
IC50 (MCF7 [31]): 5.1 µM
viability at 6 µM (MCF7 [32]): 70.5%
Activity (MCF7 [33]): 7.49%
inhibition [34]: Dose-dependent effect
Activity (MCF7 [35]): 15%
Activity (MDA-MB-231 [36]): 6.56%

— ChEMBL document CHEMBL4393664, “2,4-Disubstituted quinazolines targeting breast cancer cells via EGFR-PI3K” (Eur J Med Chem, 2019)
